Laboratory results reported in publication PMC9871236, “Differentiated HT22 cells as a novel model for in vitro screening of serotonin reuptake inhibitors” (Frontiers in Pharmacology, 2023).

Target: T1, serotonin transporter (SERT) (Mus musculus, UniProt Q60857)
T1 construct: gene Slc6a4
Assay: fluoxetine-sensitive accumulation of fluorescent substrate ([…]) in HT22 cells
Assay type: cell-based

T1 sequence (Q60857 whole entry): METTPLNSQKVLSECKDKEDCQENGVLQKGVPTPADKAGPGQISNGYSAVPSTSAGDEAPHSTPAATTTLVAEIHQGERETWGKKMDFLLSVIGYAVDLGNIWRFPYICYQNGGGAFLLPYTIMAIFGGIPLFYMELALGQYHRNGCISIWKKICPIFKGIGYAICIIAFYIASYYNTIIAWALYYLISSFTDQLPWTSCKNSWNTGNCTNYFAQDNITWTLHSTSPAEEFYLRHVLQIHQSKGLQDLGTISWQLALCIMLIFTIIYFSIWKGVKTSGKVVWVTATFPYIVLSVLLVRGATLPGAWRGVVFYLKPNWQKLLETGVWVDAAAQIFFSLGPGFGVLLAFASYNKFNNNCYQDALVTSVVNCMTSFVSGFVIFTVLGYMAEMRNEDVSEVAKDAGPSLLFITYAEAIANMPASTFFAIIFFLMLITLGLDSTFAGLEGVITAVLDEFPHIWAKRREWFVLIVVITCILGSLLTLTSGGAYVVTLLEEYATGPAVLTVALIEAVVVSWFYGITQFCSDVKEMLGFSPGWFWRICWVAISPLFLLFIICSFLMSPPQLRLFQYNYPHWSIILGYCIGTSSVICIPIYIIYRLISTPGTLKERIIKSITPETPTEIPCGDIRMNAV

With `CN(C)c1ccc(-c2cc[n+](C)cc2)cc1` [APP+, 4-(4-(dimethylamino)phenyl)-1-methylpyridinium iodide] as the compound, how does the “fluoxetine-sensitive accumulation of fluorescent substrate (10 uM) in HT22 cells” value read?
The value was “A significant increase in APP^+ reuptake was detected in differentiated HT22 cells compared to undifferentiated cells”.
